From publication PMC11249776, “Synthesis of Structural ADP-Ribose Analogues as Inhibitors for SARS-CoV-2 Macrodomain 1” (Organic Letters, 2024) come the findings set out here.

The experiment concerns the target T1, SARS-CoV-2 NSP3 macrodomain (Severe acute respiratory syndrome coronavirus 2, UniProt P0DTD1).
T1 construct: SARS-CoV-2 NSP3 macrodomain
Description: Mac1 HTRF assay (displacement of ADP-ribose conjugated biotin peptide). The format is binding. The following applies: for Mac1 inhibition / affinity in words: qualitative statement.

`CO[C@H]1O[C@H](COP(=O)(O)OP(=O)(O)OC[C@H]2O[C@@](C#N)(c3ccc4c(N)ncnn34)[C@H](O)[C@@H]2O)[C@@H](O)[C@H]1O` [Compound 10, α-O-methyl-NDPr] displayed an IC50 of 63 ± 5 nM.
As for `COC1OC(COP(=O)(O)OP(=O)(O)OCC2OC(n3cnc4c(N)ncnc43)C(O)C2O)C(O)C1OCc1ccccc1` (stereo not shown) [Compound 6], the IC50 was > 200000 nM and the “Mac1 inhibition / affinity in words” value is reported as “poor affinity”.
`C#CC1OC(COP(=O)(O)OP(=O)(O)OCC2OC(n3cnc4c(N)ncnc43)C(O)C2O)C(O)C1O` (stereo not shown) [Compound 5] returned an IC50 of 2400 ± 200 nM.
`COC1OC(COP(=O)(O)OP(=O)(O)OCC2OC(n3cnc4c(N)ncnc43)C(O)C2O)C(F)C1O` (stereo not shown) [Compound 8]: the IC50 was > 200000 nM and the “Mac1 inhibition / affinity in words” value is on record as “drastically diminished binding affinity”.
`N#C[C@@]1(c2ccc3c(N)ncnn23)O[C@H](COP(=O)(O)OP(=O)(O)OC[C@H]2O[C@H](N=[N+]=[N-])[C@H](O)[C@@H]2O)[C@@H](O)[C@H]1O` [Compound 11, α-N3-NDPr] came in with an IC50 of 30 ± 1.5 nM.
Turning to `[N-]=[N+]=NC1OC(COP(=O)(O)OP(=O)(O)OCC2OC(n3cnc4c(N)ncnc43)C(O)C2O)C(O)C1OCc1ccccc1` (stereo not shown) [Compound 7], the IC50 was determined as 80000 ± 1700 nM and the “Mac1 inhibition / affinity in words” value is given as “poor affinity”.
On to `CON=C1C(COP(=O)(O)OP(=O)(O)OCC2OC(n3cnc4c(N)ncnc43)C(O)C2O)OC(OC)C1O` (stereo not shown) [Compound 9], for which the IC50 was > 200000 nM.
